For eleven compounds, IC50 results are on record in PubChem BioAssay AID624167 (Sanford-Burnham Center for Chemical Genomics, 2012).

Active and inactive are the calls of the source.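 Rule for the calls: active = mean IC50 for reducing PEG3 promoter reporter signal at or below a set limit, with IC50 above the limit in both counter screens; inactive = the rest, including counter screen hits.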

The nature of test [1]: inhibition of PEG-3 promoter-driven reporter – cell-based, HeLa, luciferase, CREF/GAPDH counter-screen panel, dose response (AID 624167). The settings on record: CREF/GAPDH counter-screens; GAPDH; mean of runs.
In a further test the test system is GAPDH. Described as above. The settings on record: CREF/GAPDH counter-screens. In general terms: The purpose of a counterscreen is to sort out artefacts and off-target activity.
Test [2] has as its target PEG-3 (UniProt Q6IN02). The test is described as above. The note with it: HeLa PEG-Prom luciferase reporter, overnight, CREF/GAPDH counter-screens, mean of runs. In general terms: In a reporter assay the amount or activity of a reporter protein is the signal.
Test [3] has as its system PEG-3. The test is described as above. The note with it: HeLa PEG-Prom luciferase reporter, overnight, CREF/GAPDH counter-screens.
The next test deals with Rat fibroblasts (CREF). Described as above. The note with it: CREF/GAPDH counter-screens.
[4] abbreviates: run 1, dose range 1, individual replicate IC50 per panel.
Setting [5] is: run 2, dose range 1, individual replicate IC50 per panel.

For orientation: IC50 means the point on the concentration scale where inhibition reaches its midpoint.

Chain of PEG-3 (UniProt Q6IN02) (Q6IN02 whole entry, looked up): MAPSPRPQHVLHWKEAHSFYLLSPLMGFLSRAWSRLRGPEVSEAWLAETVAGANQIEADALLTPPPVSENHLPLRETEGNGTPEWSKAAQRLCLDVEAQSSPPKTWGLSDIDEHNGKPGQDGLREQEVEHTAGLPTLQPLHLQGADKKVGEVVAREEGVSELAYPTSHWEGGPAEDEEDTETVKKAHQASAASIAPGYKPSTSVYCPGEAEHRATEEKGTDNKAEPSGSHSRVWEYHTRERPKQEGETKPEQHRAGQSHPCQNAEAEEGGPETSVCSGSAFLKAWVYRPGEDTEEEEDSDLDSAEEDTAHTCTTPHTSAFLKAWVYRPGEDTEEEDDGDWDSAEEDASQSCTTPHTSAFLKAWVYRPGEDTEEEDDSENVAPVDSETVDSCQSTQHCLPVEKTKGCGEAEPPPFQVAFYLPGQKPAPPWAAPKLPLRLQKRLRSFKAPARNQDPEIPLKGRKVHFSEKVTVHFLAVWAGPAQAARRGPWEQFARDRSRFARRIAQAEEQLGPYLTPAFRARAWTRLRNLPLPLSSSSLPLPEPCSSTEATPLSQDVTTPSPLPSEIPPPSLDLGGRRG

For the compound `O=C(N/N=C/c1c(O)ccc2ccccc12)c1ccc(CO)nc1`, the IC50 in test [1] is > 100 µM (inactive); in the test on GAPDH (setting [4]) it was greater than 100 µM; in the test on GAPDH (setting [5]), greater than 100 µM; at PEG-3 [2], 3.35 µM; with PEG-3 [3] (setting [4]), 3.98 µM; in the test on PEG-3 [3] (setting [5]), 2.72 µM. Further, the values for the IC50 in the test with Rat fibroblasts (CREF) (mean of runs), with Rat fibroblasts (CREF) (setting [4]) and in the test with Rat fibroblasts (CREF) (setting [5]) were 41.7 µM, 31 µM and 52.5 µM, respectively.

As for `CC(C)(C)c1ccc(Oc2ccc(N)cc2)cc1`, the IC50 in test [1] was 1.44 µM; in the test with GAPDH (setting [4]), 0.457 µM; with GAPDH (setting [5]), 2.43 µM; on PEG-3 [2] it was 4.49 µM; in the test on PEG-3 [3] (setting [4]) it was 4.88 µM; with PEG-3 [3] (setting [5]), 4.1 µM. For the same compound, the values for the IC50 in the test on Rat fibroblasts (CREF) (mean of runs), with Rat fibroblasts (CREF) (setting [4]) and in the test on Rat fibroblasts (CREF) (setting [5]) were 74.7 µM (inactive), 74.7 µM and greater than 100 µM, respectively.

With `Cc1nc(C)c(C(=O)N/N=C/c2cc(Br)ccc2O)s1`, the IC50 was > 100 µM (inactive) in test [1]; greater than 100 µM in the test with GAPDH (setting [4]); greater than 100 µM in the test with GAPDH (setting [5]); 5.65 µM in the test with PEG-3 [3] (setting [4]); greater than 100 µM in the test on PEG-3 [3] (setting [5]); 64.9 µM (inactive) with Rat fibroblasts (CREF) (mean of runs). The figures for the IC50 with Rat fibroblasts (CREF) (setting [4]) and in the test with Rat fibroblasts (CREF) (setting [5]) were 52.3 µM and 77.5 µM, respectively. Also, the IC50 result at PEG-3 [2] was “inactive”.

As for `O=c1c2ccccc2sc2nc(CCl)nn12`, the IC50 was 11.2 µM in test [1]; 11.9 µM with GAPDH (setting [4]); 10.6 µM in the test on GAPDH (setting [5]); 9.36 µM at PEG-3 [2]; 9.23 µM with PEG-3 [3] (setting [4]); 9.49 µM with PEG-3 [3] (setting [5]). In addition, the IC50 in the test with Rat fibroblasts (CREF) (mean of runs) is > 100 µM (inactive); with Rat fibroblasts (CREF) (setting [4]), greater than 100 µM; in the test with Rat fibroblasts (CREF) (setting [5]), greater than 100 µM.

Turning to `O=C(N/N=C/c1ccc(Cl)c([N+](=O)[O-])c1)c1cc(-c2ccc3c4c(cccc24)CC3)n[nH]1`, the IC50 in test [1] is 23 µM; with GAPDH (setting [4]), 22.8 µM; with GAPDH (setting [5]), 23.2 µM; at PEG-3 [2], 8.14 µM; in the test on PEG-3 [3] (setting [4]) it was 11.2 µM; in the test with PEG-3 [3] (setting [5]), 5.1 µM. The IC50 in the test on Rat fibroblasts (CREF) (mean of runs) was > 100 µM (inactive); in the test with Rat fibroblasts (CREF) (setting [4]), greater than 100 µM; with Rat fibroblasts (CREF) (setting [5]) it was greater than 100 µM.

Regarding `C(=N\Nc1ccc2ccccc2n1)/c1ccc2c(c1)OCCO2`, the IC50 in test [1] is 3.75 µM; in the test with GAPDH (setting [4]) it was 6.78 µM; in the test on GAPDH (setting [5]) it was 0.719 µM; at PEG-3 [2] it was 6.99 µM; in the test with PEG-3 [3] (setting [4]), 5.86 µM; in the test with PEG-3 [3] (setting [5]), 8.13 µM. In addition, the IC50 in the test on Rat fibroblasts (CREF) (mean of runs) is 51.2 µM (inactive); in the test with Rat fibroblasts (CREF) (setting [4]) it was 2.43 µM; with Rat fibroblasts (CREF) (setting [5]) it was greater than 100 µM.

As to `C=C1CC2(OC1=O)c1ccccc1CCc1ccccc12`, the IC50 is 13.8 µM in test [1]; 15.2 µM with GAPDH (setting [4]); 12.5 µM in the test on GAPDH (setting [5]); 4.84 µM at PEG-3 [2]; 5.7 µM with PEG-3 [3] (setting [4]); 3.98 µM in the test on PEG-3 [3] (setting [5]). The IC50 in the test on Rat fibroblasts (CREF) (mean of runs) is 7.93 µM; in the test with Rat fibroblasts (CREF) (setting [4]), 7.58 µM; in the test with Rat fibroblasts (CREF) (setting [5]) it was 8.28 µM.

Turning to `CCCCC(=O)NC(c1ccc(OC)cc1)c1ccc2cccnc2c1O` (centres undefined), the IC50 in test [1] is > 100 µM (inactive); in the test on GAPDH (setting [4]) it was greater than 100 µM; in the test on GAPDH (setting [5]) it was greater than 100 µM; at PEG-3 [2] it was 8.02 µM; with PEG-3 [3] (setting [4]), 8.04 µM; with PEG-3 [3] (setting [5]), 7.99 µM. In addition, the values for the IC50 in the test with Rat fibroblasts (CREF) (mean of runs), in the test with Rat fibroblasts (CREF) (setting [4]) and in the test on Rat fibroblasts (CREF) (setting [5]) were > 100 µM (inactive), greater than 100 µM and greater than 100 µM, respectively.

As for `O=C(O)c1ccc(CN2C(=O)c3cccc4c([N+](=O)[O-])ccc(c34)C2=O)cc1`, the IC50 in test [1] was 22.7 µM; with GAPDH (setting [4]) it was 21.9 µM; in the test on GAPDH (setting [5]) it was 23.4 µM; on PEG-3 [2] it was 10.1 µM; with PEG-3 [3] (setting [4]), 12.1 µM; in the test with PEG-3 [3] (setting [5]), 8.2 µM. Also, the IC50 is 31.5 µM in the test with Rat fibroblasts (CREF) (mean of runs), 29.5 µM with Rat fibroblasts (CREF) (setting [4]) and 33.4 µM in the test on Rat fibroblasts (CREF) (setting [5]).

Consider `Cc1ccc(C)c(S(=O)(=O)N2CCN(c3ncnc4sccc34)CC2)c1`, for which the IC50 in test [1] is 28.7 µM; in the test with GAPDH (setting [4]) it was 9.4 µM; with GAPDH (setting [5]), 48 µM; at PEG-3 [2] it was 2.53 µM; with PEG-3 [3] (setting [4]), 2.58 µM; in the test with PEG-3 [3] (setting [5]) it was 2.47 µM. The IC50 with Rat fibroblasts (CREF) (mean of runs) is 58.7 µM (inactive); in the test with Rat fibroblasts (CREF) (setting [4]), greater than 100 µM; with Rat fibroblasts (CREF) (setting [5]) it was 17.4 µM.

In the case of `Oc1[nH]c2ccc(Br)cc2c1N=NC(=S)N1CCOCC1`, the IC50 in test [1] is 13.8 µM; in the test on GAPDH (setting [4]) it was 18.8 µM; with GAPDH (setting [5]), 8.78 µM; on PEG-3 [2], 1.07 µM; with PEG-3 [3] (setting [4]), 1.25 µM; in the test on PEG-3 [3] (setting [5]), 0.885 µM. Further, the results for the IC50 with Rat fibroblasts (CREF) (mean of runs), in the test with Rat fibroblasts (CREF) (setting [4]) and in the test with Rat fibroblasts (CREF) (setting [5]) were 50.3 µM (inactive), greater than 100 µM and 0.611 µM, respectively.
